Data: BindingDB's records for patent US8962648 (Oncotherapy Science, 2015)

Molecular target: T1, Lymphokine-activated killer T-cell-originated protein kinase (Homo sapiens, UniProt Q96KB5)
T1 sequence (Q96KB5 whole entry): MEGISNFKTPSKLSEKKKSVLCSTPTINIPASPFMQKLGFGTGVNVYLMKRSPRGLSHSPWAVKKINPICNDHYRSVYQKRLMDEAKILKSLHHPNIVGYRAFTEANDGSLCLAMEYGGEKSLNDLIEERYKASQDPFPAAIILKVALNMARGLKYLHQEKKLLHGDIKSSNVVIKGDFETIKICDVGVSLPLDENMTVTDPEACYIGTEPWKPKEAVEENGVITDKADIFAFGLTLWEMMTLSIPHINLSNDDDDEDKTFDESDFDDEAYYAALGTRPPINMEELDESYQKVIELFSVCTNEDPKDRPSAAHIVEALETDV
Assay: Kinase Assay
Settings: pH 7.4; 25 °C
Procedure: PBK activity was determined in the presence or absence of compounds using fluorescein isothiocyanate-labeled (FITC-labeled) histone H3 peptide as a substrate. […] The serially diluted compounds, 0.8 ng/micro-L PBK (Carna Biosciences) and 100 nM FITC-labeled histone H3 peptide were reacted in a reaction buffer (20 mM HEPES, 0.01% Tween-20, 0.3 mM MgCl2, 2 mM dithiothreitol, 50 micro-M ATP, pH 7.4) at room temperature for 1 hour. The reaction was stopped by the addition of three fold assay volume of progressive binding solution. Following 0.5 hour incubation at room temperature.

COc1ccc2[nH]c(=O)c3sccc3c2c1-c1ccc([C@H](C)N)cc1 [US8962648, 232]
IC50: 7.4 nM

COc1ccc2[nH]c(=O)c3sccc3c2c1-c1ccc([C@@H](C)N)cc1 [US8962648, 274]
IC50: 3.8 nM

CC(=O)Oc1ccc2[nH]c(=O)c3sccc3c2c1-c1ccc(C(C)N)cc1 (stereo not given) [US8962648, 1099]
IC50: 33 nM

CC(N)c1ccc(-c2c(O)ccc3[nH]c(=O)c4sccc4c23)cc1 (stereo not given) [US8962648, 195]
IC50: 0.73 nM

CC[C@@H](N)c1ccc(-c2c(O)cc(Br)c3[nH]c(=O)c4sccc4c23)cc1 [US8962648, 1150]
IC50: 47 nM
